We go through seven compounds from PMC6658782, “The Novel Arylamidine T-2307 Selectively Disrupts Yeast Mitochondrial Function by Inhibiting Respiratory Chain Complexes” (Antimicrobial Agents and Chemotherapy, 2019).

A value given as a limit tells only on which side of the number the result lay.

In one assay the test system is whole yeast cells. The assay can be described thus: Oxygen consumption of whole yeast cells (oxygen electrode). The format is cell-based, Saccharomyces cerevisiae. The following applies: T-2307 30, 100, 300, 1,000 μM; antimycin A 10 μg/ml; CCCP 4 μM; 23°C; 3 × 10^7 cells/ml.
Assay [1] addresses respiratory chain complex II + III (Saccharomyces cerevisiae, UniProt P00163+P07143+P08067). The assay can be described thus: Respiratory chain enzymatic activity, complexes II plus III, S. cerevisiae. Format: biochemical. The following applies: S. cerevisiae; 10 mM malonic acid, 10 μg/ml antimycin A; read-out: Inhibition (%) of positive control, Complex II+III.
Assay [2] concerns the target T1, respiratory chain complex II + III (Candida albicans, UniProt A0A1D8PHA3+A0A1D8PJX3+P0C8L0).
T1 sequence (P0C8L0 1-387): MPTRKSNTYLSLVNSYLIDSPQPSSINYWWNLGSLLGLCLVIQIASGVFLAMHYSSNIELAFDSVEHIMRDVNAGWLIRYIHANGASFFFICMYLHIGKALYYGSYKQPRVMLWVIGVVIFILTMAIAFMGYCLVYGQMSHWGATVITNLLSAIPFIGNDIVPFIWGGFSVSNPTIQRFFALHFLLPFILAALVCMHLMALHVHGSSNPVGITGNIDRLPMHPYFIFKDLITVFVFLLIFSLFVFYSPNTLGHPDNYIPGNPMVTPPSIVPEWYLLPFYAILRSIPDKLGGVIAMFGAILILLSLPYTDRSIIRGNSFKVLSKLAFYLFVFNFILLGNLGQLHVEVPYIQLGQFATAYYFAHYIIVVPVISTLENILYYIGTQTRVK
T1 sequence (A0A1D8PHA3 43-288): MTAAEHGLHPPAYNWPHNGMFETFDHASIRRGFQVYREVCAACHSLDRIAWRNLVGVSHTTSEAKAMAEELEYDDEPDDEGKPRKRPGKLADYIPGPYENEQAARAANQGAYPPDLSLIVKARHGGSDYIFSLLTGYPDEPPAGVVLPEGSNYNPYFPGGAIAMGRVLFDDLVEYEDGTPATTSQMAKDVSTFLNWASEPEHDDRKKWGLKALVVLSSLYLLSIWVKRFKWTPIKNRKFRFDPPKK
T1 sequence (A0A1D8PJX3 30-213): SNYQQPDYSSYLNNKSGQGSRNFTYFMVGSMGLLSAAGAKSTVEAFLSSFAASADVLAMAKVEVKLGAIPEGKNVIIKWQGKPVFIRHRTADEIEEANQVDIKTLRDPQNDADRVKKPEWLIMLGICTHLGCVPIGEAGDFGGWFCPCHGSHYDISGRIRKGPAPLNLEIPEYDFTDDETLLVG
The assay is described as follows: Respiratory chain enzymatic activity, complexes II plus III, C. albicans. Format: biochemical. The following applies: C. albicans; 10 mM malonic acid, 10 μg/ml antimycin A; read-out: Inhibition (%) of positive control, Complex II+III.

Assay [3] has as its target respiratory chain complex II + III (Bos taurus, UniProt P00125+P00157+P13272). The assay can be described thus: MitoCheck complex II/III activity assay, bovine heart mitochondria. The following applies: bovine heart; 1 mM TTFA, 5 μg/ml antimycin A; read-out: Inhibition (%) of positive control, Complex II+III. Format: biochemical.
A further assay relates to Saccharomyces cerevisiae. The assay is described as follows: Intracellular ATP levels in yeast (luminescence assay). Format: cell-based. The following applies: 8 h exposure at 30°C, semisynthetic medium; antimycin A 0.5 μg/ml. The protocol:
Intracellular ATP levels were measured using a previously described method with the following modifications ([25]). S. cerevisiae was grown overnight in a semisynthetic medium (per liter: 20 g of lactate, 0.5 g of glucose, 3 g of yeast extract, 1 g of KH2PO4, 1 g of NH4Cl, 0.5 g of CaCl2·2H2O, 0.5 g of NaCl, and 0.6 g of MgCl2·6H2O; adjusted to pH 5.5 with NaOH). The cells were harvested during the logarithmic-growth phase by centrifugation (3,000 × g at room temperature for 5 min). They were then washed and resuspended in distilled water. The suspension was diluted in a semisynthetic medium to yield 1 × 10^6 cells/ml. After 5 min of incubation at 30°C, T-2307 and antimycin A were added to the suspension. Further, the cells were incubated for 8 h at 30°C. Subsequently, the cells were collected by centrifugation (4,200 × g at 4°C for 5 min). After washes performed with phosphate-buffered saline (PBS; pH 7.2), the cells were resuspended in PBS and diluted to yield 1 × 10^6 cells/ml. ATP levels were measured using the BacTiter-Glo microbial cell viability assay (Promega, Madison, WI, USA), following the manufacturer’s instructions. Luminescence was measured using a microplate reader POLARstar Optima (BMG Labtech GmbH). To determine the viable cell counts, the cell suspension was diluted with PBS and spread on YPD agar. After a 2-day incubation at 30°C, colonies were counted. The intracellular ATP level is expressed as relative light units (RLU)/CFU.

For assay [4], the target named is respiratory chain complex II (Saccharomyces cerevisiae, UniProt P21801+P33421+P37298+Q00711). The assay is described as follows: Respiratory chain enzymatic activity, complex II, S. cerevisiae. The format is biochemical. The following applies: S. cerevisiae; 10 mM malonic acid; read-out: Inhibition (%) of positive control, Complex II.
The target in assay [5] is respiratory chain complex II (Candida albicans, UniProt Q59QN7+Q5A1E8+Q5AJZ8+Q5ALU6). The assay is described as follows: Respiratory chain enzymatic activity, complex II, C. albicans. The format is biochemical. The following applies: 10 mM malonic acid, read-out: Inhibition (%) of positive control, Complex II.
The test system of the next assay is NADH dehydrogenase. The assay can be described thus: NADH dehydrogenase activity, C. albicans. Format: biochemical, Candida albicans. The following applies: C. albicans; 10 μM rotenone.
Assay [6] addresses respiratory chain complex I (Bos taurus, UniProt P03887+P17694+P42026). The assay is described as follows: MitoCheck complex I activity assay, bovine heart mitochondria. Format: biochemical. The following applies: bovine heart; 2 μM rotenone; read-out: Inhibition (%) of positive control, complex I. How it is done:
The enzymatic activities of bovine heart mitochondrial respiratory chain complexes were determined using MitoCheck complex I, complex II/III, and complex IV activity assay kits (Cayman Chemical, Ann Arbor, MI, USA). Bovine heart mitochondria from these kits were used for experiments. The experiments were performed following the manufacturer’s instructions. In the experiments, 2 μM rotenone, 1 mM KCN, and both 1 mM TTFA and 5 μg/ml antimycin A served as positive controls for the inhibition of complex I, complex IV, and complexes II plus III, respectively.
In all experiments, the reaction rate of each enzyme was determined by calculating the slope of the linear portion of the curve. Complex I activity in C. albicans was calculated by subtracting the rotenone-insensitive enzymatic activity (with 10 μM rotenone) from the NADH dehydrogenase activity (without rotenone).
OCRs in isolated mitochondria and intracellular ATP levels were compared between the control and treatment groups using the parametric Dunnett’s multiple-comparison test. P values of <0.05 (comparison of multiple groups) were considered statistically significant. IC50 values were determined from dose-response curves compared with untreated control samples using a four-parameter logistic curve-fitting analysis. Data were analyzed using JMP 13.0 (SAS Institute Japan Ltd., Tokyo, Japan).

The subject of a further assay is complex III. The following applies: cited from earlier work.
The subject of assay [7] is isolated yeast mitochondria. The assay is described as follows: Mitochondrial oxygen consumption (MitoXpress probe). The format is biochemical, Saccharomyces cerevisiae. The protocol: S. cerevisiae from frozen stock (−80°C) was inoculated into yeast extract-peptone-glucose (YPD) medium (1% yeast extract, 2% peptone, and 2% glucose) and grown for 24 h at 30°C. The cultured cells were subcultured into yeast extract-peptone-galactose (YPGal) medium (1% yeast extract, 2% peptone, 2% galactose, and 0.1% glucose) and incubated overnight with continuous shaking at 30°C. When the optical density at 600 nm reached approximately 1.0, the cells were collected by centrifugation (3,000 × g at room temperature for 5 min). Intact mitochondria were isolated as per a previously described protocol ([35]) with minor modifications as follows. Yeast cells were converted to spheroplasts by incubation with Zymolyase-20T (Nacalai Tesque, Inc., Kyoto, Japan) (4 mg of Zymolyase-20T/g [wet weight] of cells) and disrupted using a Dounce homogenizer. The crude mitochondrial fraction was isolated by differential centrifugation ([35]). […]. The mitochondrial protein concentration was determined using the DC protein assay (Bio-Rad Laboratories, Inc., Hercules, CA, USA) following the manufacturer’s instructions. The mitochondrial stock solution was maintained on ice during the oxygen consumption experiment.
The mitochondrial oxygen consumption was measured using a phosphorescent oxygen-sensitive probe, MitoXpress-Xtra (Agilent Technologies, Santa Clara, CA, USA), as described previously ([16], [36]). Succinate was used as a respiratory substrate in this assay. […] A microplate reader, PHERAstar Plus (BMG Labtech GmbH, Ortenberg, Germany), was used to read. The time-resolved fluorescence protocol was set to read the plate at 1.5-min intervals for 60 min at an excitation wavelength of 337 nm, an emission wavelength of 665 nm, a delay time of 40 μs, and a gate time of 100 μs at 30°C.
[…]. […] For quantitative assessment, OCR was determined from the slope of the initial 7.5 min. OCR is expressed as micromolar of O2 per minute per milligram of protein.
The drug concentration was expressed as micromoles per milligram of protein. […]

Sequence of respiratory chain complex II (Candida albicans, UniProt Q59QN7+Q5A1E8+Q5AJZ8+Q5ALU6) (Q5A1E8 26-641): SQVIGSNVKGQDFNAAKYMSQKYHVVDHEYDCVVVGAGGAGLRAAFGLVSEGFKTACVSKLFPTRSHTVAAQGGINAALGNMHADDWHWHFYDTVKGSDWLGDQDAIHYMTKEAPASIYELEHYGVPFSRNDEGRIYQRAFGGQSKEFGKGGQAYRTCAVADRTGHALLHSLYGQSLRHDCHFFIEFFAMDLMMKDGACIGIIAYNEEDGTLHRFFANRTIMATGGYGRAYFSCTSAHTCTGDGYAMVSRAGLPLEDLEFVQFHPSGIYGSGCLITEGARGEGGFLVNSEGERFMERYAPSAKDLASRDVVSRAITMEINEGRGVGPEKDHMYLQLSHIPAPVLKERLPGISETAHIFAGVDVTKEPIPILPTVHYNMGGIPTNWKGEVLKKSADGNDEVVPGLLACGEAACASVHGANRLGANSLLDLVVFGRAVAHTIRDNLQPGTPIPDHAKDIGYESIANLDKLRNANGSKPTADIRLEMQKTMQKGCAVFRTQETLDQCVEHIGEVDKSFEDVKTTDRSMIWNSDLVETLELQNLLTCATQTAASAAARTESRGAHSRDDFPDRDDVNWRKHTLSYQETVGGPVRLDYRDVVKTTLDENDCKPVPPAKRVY
Sequence of respiratory chain complex II (Candida albicans, UniProt Q59QN7+Q5A1E8+Q5AJZ8+Q5ALU6) (Q59QN7 20-263): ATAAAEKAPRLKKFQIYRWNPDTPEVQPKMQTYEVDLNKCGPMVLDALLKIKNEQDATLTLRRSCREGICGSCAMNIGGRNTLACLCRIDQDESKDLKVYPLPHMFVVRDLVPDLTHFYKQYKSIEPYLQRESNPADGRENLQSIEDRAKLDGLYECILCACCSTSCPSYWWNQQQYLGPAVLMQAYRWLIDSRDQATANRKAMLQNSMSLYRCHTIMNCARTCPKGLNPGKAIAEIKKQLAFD
Sequence of respiratory chain complex II (Candida albicans, UniProt Q59QN7+Q5A1E8+Q5AJZ8+Q5ALU6) (Q5ALU6 32-176): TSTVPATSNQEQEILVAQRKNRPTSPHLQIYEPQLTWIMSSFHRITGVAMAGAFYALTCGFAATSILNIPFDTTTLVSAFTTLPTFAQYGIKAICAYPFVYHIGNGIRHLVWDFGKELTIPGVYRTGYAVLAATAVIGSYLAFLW
Sequence of respiratory chain complex II (Candida albicans, UniProt Q59QN7+Q5A1E8+Q5AJZ8+Q5ALU6) (Q5AJZ8 28-164): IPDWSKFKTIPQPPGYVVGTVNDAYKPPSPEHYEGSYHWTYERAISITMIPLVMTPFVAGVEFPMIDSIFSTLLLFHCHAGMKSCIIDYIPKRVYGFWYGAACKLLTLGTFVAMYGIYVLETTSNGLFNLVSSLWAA
Sequence of respiratory chain complex II (Saccharomyces cerevisiae, UniProt P21801+P33421+P37298+Q00711) (P21801 21-266): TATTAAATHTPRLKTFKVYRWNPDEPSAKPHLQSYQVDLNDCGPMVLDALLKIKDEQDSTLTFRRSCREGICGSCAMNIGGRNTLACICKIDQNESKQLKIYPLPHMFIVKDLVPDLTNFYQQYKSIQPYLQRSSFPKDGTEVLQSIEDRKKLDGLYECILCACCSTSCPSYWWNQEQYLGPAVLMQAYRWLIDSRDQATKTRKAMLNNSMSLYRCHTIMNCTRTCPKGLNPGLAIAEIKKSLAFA
Sequence of respiratory chain complex II (Saccharomyces cerevisiae, UniProt P21801+P33421+P37298+Q00711) (P33421 51-198): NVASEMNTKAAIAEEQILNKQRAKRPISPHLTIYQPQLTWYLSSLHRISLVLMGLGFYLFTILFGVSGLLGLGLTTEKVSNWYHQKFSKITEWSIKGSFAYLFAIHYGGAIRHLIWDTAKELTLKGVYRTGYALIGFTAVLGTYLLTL
Sequence of respiratory chain complex II (Saccharomyces cerevisiae, UniProt P21801+P33421+P37298+Q00711) (P37298 32-181): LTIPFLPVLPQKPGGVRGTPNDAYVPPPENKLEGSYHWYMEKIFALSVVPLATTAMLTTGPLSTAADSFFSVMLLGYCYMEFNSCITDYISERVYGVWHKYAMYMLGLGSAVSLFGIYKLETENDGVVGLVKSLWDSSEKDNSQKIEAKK
Sequence of respiratory chain complex II (Saccharomyces cerevisiae, UniProt P21801+P33421+P37298+Q00711) (Q00711 29-640): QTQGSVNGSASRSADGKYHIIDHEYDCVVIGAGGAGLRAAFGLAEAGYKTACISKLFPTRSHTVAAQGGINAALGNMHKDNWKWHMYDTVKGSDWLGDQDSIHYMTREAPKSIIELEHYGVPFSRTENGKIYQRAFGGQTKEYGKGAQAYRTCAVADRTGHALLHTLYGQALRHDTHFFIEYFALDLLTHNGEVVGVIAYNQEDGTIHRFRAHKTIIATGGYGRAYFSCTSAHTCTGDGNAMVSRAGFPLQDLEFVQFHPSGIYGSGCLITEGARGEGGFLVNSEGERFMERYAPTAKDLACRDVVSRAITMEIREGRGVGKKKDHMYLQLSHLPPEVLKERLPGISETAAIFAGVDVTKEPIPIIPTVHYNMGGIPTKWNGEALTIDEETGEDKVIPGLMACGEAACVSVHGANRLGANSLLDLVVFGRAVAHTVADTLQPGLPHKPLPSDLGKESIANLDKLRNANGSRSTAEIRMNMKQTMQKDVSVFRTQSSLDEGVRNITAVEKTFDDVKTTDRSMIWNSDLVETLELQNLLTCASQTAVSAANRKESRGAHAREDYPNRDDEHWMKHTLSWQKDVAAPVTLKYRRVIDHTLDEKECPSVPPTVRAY

For the compound `CCCCCC[C@H]1C(=O)O[C@H](C)[C@H](NC(=O)c2cccc(NC=O)c2O)C(=O)O[C@@H](C)[C@@H]1OC(=O)CC(C)C` [Antimycin A], in the assay with whole yeast cells, the “effect on oxygen consumption in whole yeast cells” value was “completely and immediately inhibited respiration”. In addition, the inhibition (usually how much of the control response was suppressed) at 10 µg/mL in assay [1] was determined as 97%; in assay [2] it was 98%. In addition, the inhibition at 5 µg/mL in [3] was determined as 92%. Besides, the “effect on intracellular ATP level” value in the assay on Saccharomyces cerevisiae was “significantly decreased”.

As to `N#CC(C#N)=NNc1cccc(Cl)c1` [CCCP, carbonyl cyanide m-chlorophenylhydrazone], the “effect on oxygen consumption in whole yeast cells” value with whole yeast cells is listed as “stimulated oxygen consumption”.

In the case of `O=C(O)CC(=O)O` [Malonic acid], the inhibition at 10000 µM turned out to be 100% in assay [4], 97% in [1], 100% in assay [5] and 98% in assay [2].

Take `C=C(C)[C@H]1Cc2c(ccc3c2O[C@@H]2COc4cc(OC)c(OC)cc4[C@@H]2C3=O)O1` [Rotenone, rotenone, reference compound]: the “Inhibition (%) of positive control, NADH dehydrogenase (including Complex I)” value in the assay on NADH dehydrogenase is listed as 59%. The inhibition at 2 µM in assay [6] amounted to 68%.

`O=C(CC(=O)C(F)(F)F)c1cccs1` [TTFA, 2-thenoyltrifluoroacetone, reference compound]: in assay [3], the inhibition at 1000 µM is 86%.

In the case of `C/C=C/[C@@H]1[C@H]2C[C@@H](C)CC[C@@H]2C(C)=C[C@H]1C(=O)c1c(O)c(-c2ccc(O)cc2)c[nH]c1=O` [ilicicolin H], the “selectivity between yeast and bovine complex III” value in the assay on complex III is on record as above 70 fold.

With Oligomycin A, the “effect on mitochondrial oxygen consumption rate (OCR)” value is on record as “significantly inhibited” in assay [7] (ADP-stimulated condition (succinate + ADP)) and “did not decrease the OCR” in [7] (basal condition (succinate, absence of ADP)).
